# In patent US20240425457A1, “COMPOSITIONS AND METHODS FOR SUPPRESSING AND/OR TREATING METABOLIC DISEASES AND/OR A CLINICAL CONDITION THEREOF” (CK Biotech Inc., priority 2018, published 2024):
# “Also recorded” adds a separate entry of the source. Where two headings read alike, the source gives them in different places.
# Tests used:
# CXXC5-DVL interaction [1] = target: T1, CXXC5-DVL interaction (Homo sapiens, UniProt O14640); assay: in vitro CXXC5-DVL PPI inhibition screening assay (FITC-tagged PTD-DBMP on DVL-PDZ, fluorescence); format: binding
# T1 sequence (O14640 251-323 limits assumed): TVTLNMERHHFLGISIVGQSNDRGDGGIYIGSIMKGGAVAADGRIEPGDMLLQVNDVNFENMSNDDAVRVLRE
# Method: Screening for compounds that inhibit the CXXC5-DVL interaction. […] CELL. DEATH. DIFFER. […] After the addition of 10 μM FITC-tagged PTD-DBMP to each well, each compound in the chemical library or control (DMSO) was treated to the well at a final concentration of 30 μM. The fluorescence intensity was measured using a Fluorstar Optima microplate reader (BGM Lab Technologie, Ortenberg, Germany) and normalized as follows: “(‘compounds-treated group’−‘blank’)/(‘DMSO-treated control’−‘blank’)*100”.
# CXXC5-DVL interaction [2] = target: T1, CXXC5-DVL interaction; assay: Dvl-CXXC5 in vitro binding assay, (PTD-DBMP)-(PZD-DVL), concentration dependent
# HFD-fed mice = assay: HFD-induced obesity/diabetes mice, 5-day oral courses at weeks 8/9 and 12; format: in vivo; conditions: for fasting glucose level: A3334, A3051, I3O 25, sitagliptin 50, metformin 100 mg/kg
# Source text: Animals. The generation of Cxxc5^−/− mice has been described previously. Cxxc5 heterozygous mice were intercrossed for four generations to obtain littermate wild-type and Cxxc5^−/− mice and were maintained on a C57BL/6 background. Six-week-old Cxxc5^+/+ and Cxxc5^−/− mice were fed HFD for 8 weeks. Wild-type male C57BL/6 mice (KOATECH, Seoul, Korea) were fed HFD consisting of 60% calories from fat (Research Diet, D12492) for 8 weeks. To validate that the insulin resistance mouse model was successfully established, fasting glucose levels were assessed with a One Touch Ultra glucometer (LifeScan). Subsequently, each HFD-fed mouse with a fasting glucose level higher than 16.7 mmol/L was orally administered A3334 (25 mg kg^−1), sitagliptin (50 mg kg^−1), or metformin (100 mg kg^−1) each day for 5 days at weeks 8 and 12. After the removal of the drugs, mice were maintained for 3 weeks on the HFD. To monitor pancreas regeneration, six-week-old Cxxc5^+/+ and Cxxc5^−/− mice were fed an HFD as above. After dietary treatment for 4 weeks, the mice were intraperitoneally injected with STZ (50 mg/kg/d) for 1 week and the control group were injected with saline. After 2 weeks, Cxxc5^+/+ mice were administered A3334 (25 mg kg^−1) and sitagliptin (50 mg kg^−1) per day by oral gavage for 4 weeks. For GTT or ITT, mice were injected with D-glucose (1.5 g/kg body weight) after overnight starvation or human insulin (0.75 units/kg body weight) after 4 h starvation, respectively. Tail blood was drawn at 0, 15, 30, 60, 120, 180 min intervals and blood glucose level was measured with a One Touch Ultra glucometer. All mice were maintained under temperature-controlled and light-controlled (standard 12 h light/dark cycle) conditions and provided with food and water ad libitum. All protocols were reviewed and approved by the Institutional Review Board of Severance Hospital, Yonsei University College of Medicine (09-013).
# Blood chemistry. Total blood of mice was collected by cardiac puncture after fasting. The blood was allowed to clot for 30 min and was then centrifuged for 10 min at 1,000×g to obtain supernatant to measure metabolic parameters. ELISA assay kits were used to assess serum insulin (Millipore), serum FFA (Cayman Chemical), serum adiponectin (ABclonal). The insulin function test was evaluated by HOMA-IR and was calculated as fasting plasma glucose (m mol/l)×fasting serum insulin (mU/l)/22.5. Serum chemistry variables included total cholesterol, HDL-cholesterol, glucose, TG, ALT, AST, ALP, Ca, and Mg concentration. The calibration of serum parameters was performed using the quality control card supplied with the FUJI DRI-CHEM slides whenever slides from a new lot were used. […]
# Hematoxylin and eosin (H&E) staining. Dissected tissues were fixed in 4% neutral paraformaldehyde and embedded in paraffin. The paraffin sections were cut at a thickness of 4 μm and subjected to H&E staining. The adipocyte cell size was measured in 20 randomly chosen microscopic areas from 3 independent animals using a Nikon bright-field optical microscope (Nikon TE-2000U). The average adipocyte size was determined using Image J software. […]
# Metabolic monitoring and body composition. Metabolic performance (energy intake and energy expenditure) was studied using a PHENOMASTER automated combined indirect calorimetry system (TSE system GmBH). The mice were first acclimated for 24 h in a metabolic chamber and were provided with food and water. They were then subsequently evaluated for 3 days to measure oxygen consumption (VO2), carbon dioxide production (VCO2), ambulatory counts, and respiratory exchange ratio. An LF50 body composition analyzer (Bruker) was used to determine body composition (lean body mass and total body fat) of the mice. The temperature for these studies remained at 22° C., with a 12 h light/dark cycle. Standard in-house software was used for energy expenditure.
# Quantitative real-time polymerase chain reaction (PCR). […]
# MCD-induced NASH mice = assay: MCD diet-induced NASH mice; format: in vivo; conditions: MCD diet 7 weeks; for hepatosteatosis (H&E): then 25 mg/kg daily oral gavage 3 weeks
# Method: NASH study. Eight-week-old wild-type male C57BL/6N mice (KOATECH, Seoul, Korea) were fed on the methionine-choline deficient (MCD) diet for 7 weeks, followed by treatment with vehicle, A3334, A3051, or I3O of (25 mg kg^−1) sitagliptin (25 mg kg^−1) for another 3 weeks via daily oral gavage.
# Collagen staining. 4 µm-liver tissues sections were stained using two common collagen staining methods. For Masson's trichrome staining, slides were fixed in Bouin's solution for 1 h. After incubation in Weigert's iron hematoxylin solution for 10 min, the slides were stained with Biebrich Scarlet-Acid Fuchsin and Aniline blue for 5 min. The collagen fibers were stained blue and the nuclei were stained black. For picrosirius red staining, sections were stained with Weigert's solution for 8 min and picrosirius red for 1 h. The collagen fibers were stained red with blue nuclei.
# normal (Chow) mice = assay: normal diet (NCD/Chow) fed mice treated with A3334; format: in vivo
# Source text: No effect of A3334 on mice fed with normal diet. To evaluate whether the A3334 treatment would have any effect on normal diet fed mice, C57BL/6N mice were fed normal diet for 16 weeks with or without oral administration of 25 mpk A3334.
# [3] = FIG. 33A-33C, unit inferred, read-out: IC50, in vitro (PTD-DBMP)-(PZD-DVL) binding analyses
# [4] = HFD mice, p.o. daily 5 days at weeks 8/9 and 12
# [5] = HFD mice, 5-day courses at weeks 8/9 and 12, A3334 25 mg/kg, 25 mg/kg
compound,measurement,setting,value
"CO/N=C1/C(=C2/C(=O)Nc3cc(Cl)c(Cl)cc32)Nc2ccccc21 [Compound A3051, 5,6-dichloroindirubin-3′-methoxime]",inhibition of CXXC5-DVL interaction (in words),CXXC5-DVL interaction [1],effectively inhibited interaction between CXXC5 and DVL
same,IC50,CXXC5-DVL interaction [2]; [3],7.71 nM
same,fasting glucose level,HFD-fed mice; [4],"also reduced fasting glucose. However, effects of A3051 and I3O is similar to or little bit weaker than SITA"
same,hepatosteatosis (H&E),MCD-induced NASH mice,"also reduced hepatosteatosis, but revealed only marginal effects compared to A3334"
"COc1ccc2c(c1)/C(=C1/Nc3ccccc3/C1=N\O)C(=O)N2 [Compound A3334, 5-Methoxyindirubin-3′-oxime]",inhibition of CXXC5-DVL interaction (in words),CXXC5-DVL interaction [1],effectively inhibited interaction between CXXC5 and DVL
same,IC50,"CXXC5-DVL interaction [2]; FIG. 10B, read-out: CXXC5-Dvl PPI inhibition IC50",63.1 nM
same,IC50,CXXC5-DVL interaction [2]; [3],25.8 nM
same,thermogenesis and beige-fat markers in scWAT,HFD-fed mice; HFD (DIO) mice,exhibited elevated thermogenesis and beige-fat markers
same,Ca++ and Mg++ levels in serum,HFD-fed mice; HFD mice,without any effect on Ca^++ and Mg^++ imbalance; also recorded: not significantly changed
same,F4/80+ and CD11b+ cells / inflammation in adipose tissue,HFD-fed mice; HFD mice,the populations of F4/80^+ and CD11b^+ cells decreased; also recorded: also suppressed by A3334
same,energy expenditure and activity,HFD-fed mice; HFD mice,increases energy expenditure via enhancing brown- and beige-fat activation; also recorded: higher energy expenditure and more active behavior than vehicle-treated mice
same,mRNA of M1 and M2 macrophage marker genes in epiWAT,HFD-fed mice; HFD mice,"decreased and increased in the epiWAT of A3334-treated mice, respectively"
same,respiratory exchange ratio,HFD-fed mice; HFD mice,lower respiratory exchange ratio
same,"serum ALT, AST, FFA (and TG)",HFD-fed mice; HFD mice,mostly suppressed by the A3334 treatment; also recorded: reduced by A3334; also recorded: also lowered by A3334; also recorded: significantly lowered by A3334
same,"transition of brown adipocytes to white adipocytes, UCP1 and GLUT4",HFD-fed mice; HFD mice,suppressed by the A3334 treatment together with recovery of the levels of UCP1 and GLUT4
same,serum adiponectin level,HFD-fed mice; HFD mice (FIG. 38G),increased by A3334
same,glucose tolerance and insulin tolerance (GTT/ITT),HFD-fed mice; [5],significantly improved the systemic glucose tolerance and insulin resistance; also recorded: most significantly reduced by A3334
same,"insulin resistance (fasting insulin, HOMA-IR)",HFD-fed mice; [5],improves diet-induced obesity and insulin resistance; also recorded: improved insulin resistance; also recorded: reduced by A3334; also recorded: mostly resolved by A3334 administration
same,body weight and food intake,"HFD-fed mice; HFD mice, A3334 25 mg/kg",the body weights were decreased without significant changes in food intake
same,"fat mass (body composition, tissue weights)","HFD-fed mice; HFD mice, A3334 25 mg/kg",reduction of overall fat mass
same,"levels of GTT/ITT, total cholesterol, fasting glucose, triglyceride, FFAs in serum","HFD-fed mice; HFD mice, A3334 25, metformin 100, sitagliptin 50 mpk (FIG. 38B-38F)",most significantly reduced by A3334
same,"hepatic steatosis (lipid droplets, fatty liver, hepatic TG)","HFD-fed mice; HFD mice, H&E, Oil Red O",did not form lipid droplets with a reduction in the hepatic TG levels; also recorded: totally abolished by the A3334 treatment; also recorded: suppressed by A3334
same,Cxxc5 and β-catenin expression in epiWAT,"HFD-fed mice; HFD mice, IHC",Cxxc5 expression was mostly abolished and only a small amount remained in the nucleus with the elevation of nuclear β-catenin
same,UCP1 protein level in BAT and scWAT,"HFD-fed mice; HFD mice, IHC",the protein level increment of the major thermogenin uncoupling protein 1 (UCP1) was confirmed in BAT and scWAT
same,crown-like structures and adipocyte size in white adipose tissue,"HFD-fed mice; HFD mice, epiWAT/WAT, H&E",significantly decreased the number of CLSs as well as the size of adipocytes; also recorded: suppressed HFD-induced increase in cell size and the expression of PPARγ and C/EBPα; also recorded: inhibited by the A3334 treatment
same,oxygen consumption (VO2) and carbon dioxide production (VCO2),"HFD-fed mice; HFD mice, light and dark periods",consumed higher oxygen (VO2) and exhaled more carbon dioxide (VCO2)
same,Wnt/β-catenin signaling target genes in liver,"HFD-fed mice; HFD mice, mRNA",induction of Wnt/β-catenin signaling target genes; also recorded: significantly increased by A3334 treatment
same,Wnt/β-catenin target genes and lipogenesis/inflammation genes in white adipose tissue,"HFD-fed mice; HFD mice, mRNA",upregulated with the regression of the lipogenesis genes; also recorded: significantly lowered by the A3334 treatment
same,lipogenesis and gluconeogenesis genes in liver,"HFD-fed mice; HFD mice, mRNA","repressed in the liver of A3334-treated mice; also recorded: significantly lowered by the A3334 treatment; also recorded: reduced by both A3334 and SITA, but A3334 showed better effectiveness"
same,thermogenesis / mitochondria biogenesis markers in BAT,"HFD-fed mice; HFD mice, mRNA",significantly elevated expression levels of the key thermogenesis markers; also recorded: all increased by the A3334 treatment
same,persistence of fasting glucose control after end of treatment,"HFD-fed mice; HFD mice, p.o. daily 5 days at weeks 8/9 and 12, A3334 25, sitagliptin 50, metformin 100 mg/kg",prolonged effectiveness for the control of fasting glucose levels; also recorded: unexpected long-lasting glucose controlling effect; also recorded: long lasting effect in suppression of fast glucose level; also recorded: most significant and long last effects on fasting glucose control effect
same,fasting glucose level,HFD-fed mice; [4],lower in the A3334 treatment than in the sitagliptin and metformin treatment groups; also recorded: reduced similarly by treatment with all of these compounds at initial applications
same,"endocrine and metabolic parameters: total cholesterol, HDL-cholesterol, TG, adiponectin","HFD-fed mice; HFD mice, plasma, overnight fasted",much better effects than sitagliptin- and metformin-treated mice
same,"secretory proteins/adipokines, protein chip","HFD-fed mice; HFD mice, serum",decreased the expression levels of various secretory proteins
same,ALT and AST levels,MCD-induced NASH mice; then 25 mg/kg daily 3 weeks,mostly abolished by A3334 treatment
same,FFAs and TG in serum,MCD-induced NASH mice; then 25 mg/kg daily 3 weeks,mostly abolished with A3334 treatment
same,"fibrosis, histological analyses",MCD-induced NASH mice; then 25 mg/kg daily 3 weeks,improvement of the MCD-diet induced fibrosis by A3334
same,"liver mRNA of pro-inflammation, FA oxidation, apoptosis and fibrosis markers",MCD-induced NASH mice; then 25 mg/kg daily 3 weeks,significantly reduced by A3334
same,hepatosteatosis (H&E),MCD-induced NASH mice,significantly abolished by A3334 co-treatment
same,"effect on normal diet fed mice (fat size, organ weight, ALT and AST)",normal (Chow) mice; 25 mg/kg/d p.o.,"has no effect in NCD mice; also recorded: did not have any effect on normal (Chow) mice; also recorded: no observation of metabolic disease phenotypes; also recorded: did not show any differences on size of fats (FIG. 36A-36B), weight of organs (FIG. 36D), and level of ALT and AST in blood serum"
same,histology of normal diet fed mice,normal (Chow) mice; 25 mpk p.o.,no histological differences were observed
